Measured values reported in patent publication US20070293510A1, “Thiadiazole compounds and use thereof” (Sumitomo Chemical company, Limited ( a Japanese corporation), priority 2002, published 2007).

Test system: cotton aphids (Aphis gossypii)
Assay: Test Example: cotton aphid control on cucumber plants, spray of diluted formulation
Format: in vivo
Details: formulation per Formulation Example 5 diluted with water to 500 ppm active ingredient; sprayed 20 ml/cup on cucumber plants with about 20 cotton aphids; counted on the 6th day after application
Procedure: Each formulation of the present compound (1), (3), (4), (6), (7), (8), (12), (13), (14), (15), (16), (17), (18), (19), (20), (21), (22), (23), (24), (25), (26), (28), (30), (31), (33), (34), (35), (36), (37), (38), (42), (43) and (44) obtained according to the Formulation Example 5 was diluted with water so that the active ingredient concentration came to 500 ppm to prepare a diluting liquid. The seeds of cucumber were planted in polyethylene cups and grown until their first foliage leaves developed, on which about 20 cotton aphids (Aphis gossypii) were made parasitic. After one day, the diluting liquid was sprayed at the rate of 20 ml/cup onto the cucumber plants. On the 6th day after the application, the number of cotton aphids was examined. As a result, the numbers of the living cotton aphids were three or less.

| SMILES | numbers of the living cotton aphids |
| --- | --- |
| CCOCSc1nsc(OCc2ccccc2)n1 [present compound (42), 5-benzylloxy-3-ethoxymethylthio-1,2,4-thiadiazole] | three or less |
| CSc1nsc(OCc2ccncc2)n1 [present compound (34), 5-(4-pyridylmethyloxy)-3-methylthio-1,2,4-thiadiazole] | three or less |
| CSc1nsc(OCCCc2ccccc2)n1 [present compound (25), 5-(3-phenylpropyloxy)-3-methylthio-1,2,4-thiadiazole] | three or less |
| CSc1nsc(OCc2ccc(Cl)c(Cl)c2)n1 [present compound (18), 5-(3,4-dichlorobenzyloxy)-3-methylthio-1,2,4-thiadiazole] | three or less |
| CSc1nsc(OCc2ccc(F)cc2)n1 [present compound (12), 5-(4-fluorobenzyloxy)-3-methylthio-1,2,4-thiadiazole] | three or less |
| CSc1nsc(OCc2ccc(I)cc2)n1 [present compound (14), 5-(4-iodobenzyloxy)-3-methylthio-1,2,4-thiadiazole] | three or less |
| CSc1nsc(OCc2ccc(C(F)(F)F)cc2)n1 [present compound (7), 5-(4-trifluoromethylbenzyloxy)-3-methylthio-1,2,4-thiadiazole] | three or less |
| c1ccc(COCSc2nsc(OCc3ccccc3)n2)cc1 [present compound (43), 5-bezyloxy-3-benzyloxymethylhio-1,2,4-thiadiazole] | three or less |
| CSc1nsc(OCc2cccc(C(F)(F)F)c2)n1 [present compound (6), 5-(3-trifluoromethylbenzyloxy)-3-methylthio-1,2,4-thiadiazole] | three or less |
| CC(=O)OCSc1nsc(OCc2ccccc2)n1 [present compound (44), 5-bezyloxy-3-acetoxymethylhio-1,2,4-thiadiazole] | three or less |
| CSc1nsc(OCc2ccc(Cl)nc2)n1 [present compound (21), 5-(6-chloro-3-pyridyl)methyloxy-3-methylthio-1,2,4-thiadiazole] | three or less |
| CSc1nsc(OCc2c(F)cccc2F)n1 [present compound (16), 5-(2,6-difluorobenzyloxy)-3-methylthio-1,2,4-thiadiazole] | three or less |
| CSc1nsc(OCc2ccc(Br)cc2)n1 [present compound (13), 5-(4-bromobenzyloxy)-3-methylthio-1,2,4-thiadiazole] | three or less |
| CSc1nsc(OCc2cc(Cl)cc(Cl)c2)n1 [present compound (28), 5-(3,5-dichlorobenzyloxy)-3-methylthio-1,2,4-thiadiazole] | three or less |
| CSc1nsc(OCc2cccc([N+](=O)[O-])c2)n1 [present compound (26), 5-(3-nitrobenzyloxy)-3-methylthio-1,2,4-thiadiazole] | three or less |
| CSc1nsc(OCc2ccccn2)n1 [present compound (19), 5-(2-pyridylmethyloxy)-3-methylthio-1,2,4-thiadiazole] | three or less |

| SMILES | numbers of the living cotton aphids |
| --- | --- |
| CSc1nsc(OC(C)c2ccccc2)n1 (centres unmarked) [present compound (22), 5-(1-phenylethoxy)-3-methylthio-1,2,4-thiadiazole] | three or less |
| C=CCSc1nsc(OCc2ccccc2)n1 [present compound (30), 5-benzyloxy-3-allylthio-1,2,4-thiadiazole] | three or less |
| COc1ccc(CSc2nsc(OCc3ccccc3)n2)cc1 [present compound (33), 5-benzyloxy-3-(4-methoxybenzyl)thio-1,2,4-thiadiazole] | three or less |
| CSc1nsc(OCc2ccccc2)n1 [present compound (1), 5-benzyloxy-3-methylthio-1,2,4-thiadiazole] | three or less |
| CSc1nsc(OCc2ccc(OC(F)(F)F)cc2)n1 [present compound (15), 5-(4-trifluoromethoxybenzyloxy)-3-methylthio-1,2,4-thiadiazole] | three or less |
| CSc1nsc(OCc2cccc(Cl)c2)n1 [present compound (3), 5-(3-chlorobenzyloxy)-3-methylthio-1,2,4-thiadiazole] | three or less |
| c1ccc(CSc2nsc(OCc3cncnc3)n2)cc1 [present compound (38), 5-(5-pyrimidylmethyloxy)-3-benzylthio-1,2,4-thiadiazole] | three or less |
| CSc1nsc(OCc2ncccn2)n1 [present compound (36), 5-(2-pyrimidylmethyloxy)-3-methylthio-1,2,4-thiadiazole] | three or less |
| CSc1nsc(OCc2cc(F)cc(F)c2)n1 [present compound (17), 5-(3,5-difluorobenzyloxy)-3-methylthio-1,2,4-thiadiazole] | three or less |
| CSc1nsc(OCCc2ccccn2)n1 [present compound (24), 5-(2-pyridyl-2-ethyloxy)-3-methylthio-1,2,4-thiadiazole] | three or less |
| CSc1nsc(OCc2cccc(Cl)n2)n1 [present compound (35), 5-(6-chloro-2-pyridylmethyloxy)-3-methylthio-1,2,4-thiadiazole] | three or less |
| CSc1nsc(OCCc2ccccc2)n1 [present compound (23), 5-(2-phenylethoxy)-3-methylthio-1,2,4-thiadiazole] | three or less |
| CSc1nsc(OCc2ccc(C)cc2)n1 [present compound (8), 5-(4-methylbenzyloxy)-3-methylthio-1,2,4-thiadiazole] | three or less |
| c1ccc(COc2nc(SCc3ccccc3)ns2)cc1 [present compound (31), 5-benzyloxy-3-benzylthio-1,2,4-thiadiazole] | three or less |
| CSc1nsc(OCc2ccc(Cl)cc2)n1 [present compound (4), 5-(4-chlorobenzyloxy)-3-methylthio-1,2,4-thiadiazole] | three or less |
| CSc1nsc(OCc2cncnc2)n1 [present compound (37), 5-(5-pyrimidylmethyloxy)-3-methylthio-1,2,4-thiadiazole] | three or less |
